According to PMC10629583, “Specific inhibition of an anticancer target, polo-like kinase 1, by allosterically dismantling its mechanism of substrate recognition” (Proceedings of the National Academy of Sciences of the …, 2023):
Entries after “also recorded” stand apart in the source; their conditions may differ. [ ]: non-standard residue; d: D form. The star is where a group is joined. FITC = O=C1OC2(c3ccc(O)cc3Oc3cc(O)ccc32)c2ccc(NC(=S)*)cc21; pT = C[C@@H](OP(=O)(O)O)[C@H](N)C(=O)O; Ahx = NCCCCCC(=O)O

Assays:
full-length Plk1 = biological target: T1, full-length Plk1 (Homo sapiens, UniProt P53350); experiment: ELISA-based PBD1-binding inhibition assay; conditions: total lysates from HEK293A cells expressing full-length Plk1; biotinylated PBIP1 p-T78 peptide; read-out: Anti-Plk1 (full length) ELISA (IC50) Mean ± SEM
T1 construct: expressed in transfected cells; host or cells: HEK293A cells infected with adenovirus; total lysate
T1 sequence (P53350 whole entry): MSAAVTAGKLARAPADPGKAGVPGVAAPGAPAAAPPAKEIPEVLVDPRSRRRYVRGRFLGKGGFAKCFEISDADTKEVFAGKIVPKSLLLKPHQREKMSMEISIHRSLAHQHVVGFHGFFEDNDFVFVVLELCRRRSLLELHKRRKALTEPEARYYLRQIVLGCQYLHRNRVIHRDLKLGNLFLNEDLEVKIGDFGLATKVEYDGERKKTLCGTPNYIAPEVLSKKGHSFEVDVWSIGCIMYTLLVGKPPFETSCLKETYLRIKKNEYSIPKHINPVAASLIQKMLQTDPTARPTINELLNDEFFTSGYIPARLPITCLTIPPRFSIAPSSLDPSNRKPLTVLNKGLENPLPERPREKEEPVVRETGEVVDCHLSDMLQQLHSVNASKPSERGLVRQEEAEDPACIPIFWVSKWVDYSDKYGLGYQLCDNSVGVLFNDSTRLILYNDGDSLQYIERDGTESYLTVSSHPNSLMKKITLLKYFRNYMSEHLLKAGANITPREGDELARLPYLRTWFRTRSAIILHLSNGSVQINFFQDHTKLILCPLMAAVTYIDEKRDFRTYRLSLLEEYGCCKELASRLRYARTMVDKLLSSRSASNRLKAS

L363 cells = experiment: MTS cell viability assay, L363 cells; format: cell-based; conditions: 48 h treatment
Plk1 PBD (PBD1) = biological target: T2, Plk1 PBD (PBD1) (Homo sapiens, UniProt P53350); experiment: FP-based inhibition assay, PBD1; format: binding; conditions: FP, bacterially expressed purified PBD, FITC-ligand 15 nM, PBD at EC85; read-out: PBD1 IC50 ± SD
T2 construct: constructs expressing PBD1 (residues 345–603) WT (pKM7650); His; TEV site (N); made in house; host or cells: bacteria (E. coli)
T2 sequence (P53350 345-603): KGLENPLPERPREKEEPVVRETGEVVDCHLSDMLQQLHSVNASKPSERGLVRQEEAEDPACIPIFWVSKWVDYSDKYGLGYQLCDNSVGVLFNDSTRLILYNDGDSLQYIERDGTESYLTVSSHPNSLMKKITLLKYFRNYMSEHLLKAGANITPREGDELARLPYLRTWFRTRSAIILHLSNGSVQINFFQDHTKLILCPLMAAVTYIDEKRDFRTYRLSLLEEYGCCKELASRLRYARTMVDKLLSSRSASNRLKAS
Procedure: (§1) FP assays were carried out essentially as described previously ([35], [36]). […] All the samples were analyzed approximately 30 min after reaction in a 384-well format using the SpectraMax Paradigm multimode microplate detection platform (Molecular Devices). Data were analyzed after carrying out at least three independent experiments using GraphPad Prism software version 8.

Plk2 PBD (PBD2) = biological target: T3, Plk2 PBD (PBD2) (Homo sapiens, UniProt Q9NYY3); experiment: FP-based inhibition assay, PBD2; format: binding; conditions: bacterially expressed purified PBD, FITC-ligand 15 nM, PBD at EC85
T3 construct: Purification of PBD2-His (355–685) (pKM3358) and its S652F mutant (pKM7980); His (C); made in house; host or cells: bacteria (E. coli)
T3 sequence (Q9NYY3 355-685): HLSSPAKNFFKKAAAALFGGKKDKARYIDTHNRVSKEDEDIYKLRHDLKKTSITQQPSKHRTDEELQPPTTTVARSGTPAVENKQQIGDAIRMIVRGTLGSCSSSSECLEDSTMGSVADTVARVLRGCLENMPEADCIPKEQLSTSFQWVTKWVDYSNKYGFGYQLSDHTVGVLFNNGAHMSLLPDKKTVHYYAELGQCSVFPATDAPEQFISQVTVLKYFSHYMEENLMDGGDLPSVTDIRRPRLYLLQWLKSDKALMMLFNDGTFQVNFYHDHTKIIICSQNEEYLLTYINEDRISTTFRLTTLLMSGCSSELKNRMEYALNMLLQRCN
Procedure: as §1

Plk3 PBD (PBD3) = biological target: T4, Plk3 PBD (PBD3) (Homo sapiens, UniProt Q9H4B4); experiment: FP-based inhibition assay, PBD3; format: binding; conditions: bacterially expressed purified PBD, FITC-ligand 15 nM, PBD at EC85
T4 construct: MBP-PBD3-His (335–646) (pKM3359) and its A612F (pKM7981); His (C); made in house; host or cells: bacteria (E. coli)
T4 sequence (Q9H4B4 335-646): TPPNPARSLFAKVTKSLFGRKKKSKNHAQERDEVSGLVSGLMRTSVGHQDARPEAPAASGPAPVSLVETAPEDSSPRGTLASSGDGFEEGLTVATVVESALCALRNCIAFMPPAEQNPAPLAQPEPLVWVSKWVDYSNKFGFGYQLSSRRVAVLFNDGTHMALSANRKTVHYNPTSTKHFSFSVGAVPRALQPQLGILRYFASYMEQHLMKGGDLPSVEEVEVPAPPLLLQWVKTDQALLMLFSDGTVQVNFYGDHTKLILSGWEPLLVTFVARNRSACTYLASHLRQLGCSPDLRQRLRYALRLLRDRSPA
Procedure: (§2) FP assays were carried out essentially as described previously ([35], [36]). FITC-conjugated ligands (15 nM) were mixed with PBDs at their EC85 concentrations. All the samples were analyzed approximately 30 min after reaction in a 384-well format using the SpectraMax Paradigm multimode microplate detection platform (Molecular Devices). Data were analyzed after carrying out at least three independent experiments using GraphPad Prism software version 8.

BZP Rat brain site = experiment: PDSP off-target binding screen; conditions: read-out: Secondary screen Ki
Excerpt: (§3) PDSP no. Compound Interactions (Ki, µM)
(§4) 60477 Allopole-A None observed.
(§5) trigger a secondary screen at that receptor.

[1] = Conversion of prodrug 6 to active species 5 by GSH (HPLC); format: physicochemical; conditions: room temperature, after 5 min
Procedure: To a solution of 6 (1.0 mg, 2.4 µmol) in 0.800 mL of MeOH-d4 was added a solution of glutathione (1.1 mg, 3.6 µmol) and sodium carbonate (0.76 mg, 7.2 µmol) in 0.200 mL of D2O. The reaction was stirred at room temperature and sampled at 5, 10, 20, and 60 min. Aliquots were flash-frozen on dry ice and always stored at −80 °C. HPLC and mass spectrometry were used to analyze the reaction mixtures.
HPLC analysis of both pure 6 (rt = 13.95 min) and 5 (rt = 11.16 min) using the method of acetonitrile 05 to 95% and 10 mM triethylammonium acetate 95 to 5% in 20 min gave standards to compare against the reaction mixture. The HPLC analysis of the reaction mixture, compared to standards, was performed using a Hewlett−Packard 1100 HPLC equipped with an Agilent Eclipse 5 µm XDB-C18 analytical column (50 mm × 4.6 mm; Agilent Technologies Inc.).

[2] = Solubility in PBS (imaging of insoluble particles, dynamic light scattering); format: physicochemical; conditions: PBS buffer (pH 7.4)
Procedure: All samples were analyzed after adjusting the concentration to 100 μM solution in the PBS buffer (pH 7.4) containing 1% DMSO. The measurements were carried out at 25 °C using the DynaPro NanoStar system (Wyatt Technology). The intensity of the scattered light was measured as a function of time, and the resulting data were used to calculate the size and distribution of the particles in the sample. Collected data were analyzed using the DYNAMICS software to calculate the mean size and polydispersity index of the particles in the sample. At least three repeat measurements were performed to ensure that the results were accurate and reproducible.
Fig. S1. Solubility and activity of Allopole and its related compounds. (A) Images showing insoluble
particles of 200 µM of the indicated compounds dissolved in the PBS buffer. The aggregates of […]

[3] = test system: 45 receptors and channels; experiment: PDSP off-target screen (whole panel); format: binding, human
Excerpt: as §3, §4, §5

Flag-Plk1 K82M = experiment: Pulldown with biotinylated compound 22, Plk1; format: binding; conditions: streptavidin agarose, anti-Flag immunoblot
Procedure: (§6) A mixture of total cell lysates expressing Flag-Plk1 K82M (pKL577), Flag-Plk2 K108M (pKL1416), or Flag-Plk3 K52R (pKM203) (a gift from Wei Dai, New York University School of Medicine, NY) was prepared in TBSN buffer and incubated with a biotinylated Allopole-A-derivative, 22, or biotin alone. The resulting samples were then subjected to pulldown analyses with streptavidin agarose bead (Thermo Fisher Scientific), after which they were separated by SDS-PAGE and immunoblotted with anti-Flag antibody.

Flag-Plk2 K108M = experiment: Pulldown with biotinylated compound 22, Plk2; format: binding; conditions: streptavidin agarose, anti-Flag immunoblot
Procedure: as §6

Flag-Plk3 K52R = biological target: T5, Flag-Plk3 K52R (Homo sapiens, UniProt Q9H4B4, K91R); experiment: Pulldown with biotinylated compound 22, Plk3; format: binding; conditions: streptavidin agarose, anti-Flag immunoblot
T5 construct: expressed in transfected cells; host or cells: HEK293 cells; mixed total lysates
T5 sequence (Q9H4B4 40-646 K91R limits assumed): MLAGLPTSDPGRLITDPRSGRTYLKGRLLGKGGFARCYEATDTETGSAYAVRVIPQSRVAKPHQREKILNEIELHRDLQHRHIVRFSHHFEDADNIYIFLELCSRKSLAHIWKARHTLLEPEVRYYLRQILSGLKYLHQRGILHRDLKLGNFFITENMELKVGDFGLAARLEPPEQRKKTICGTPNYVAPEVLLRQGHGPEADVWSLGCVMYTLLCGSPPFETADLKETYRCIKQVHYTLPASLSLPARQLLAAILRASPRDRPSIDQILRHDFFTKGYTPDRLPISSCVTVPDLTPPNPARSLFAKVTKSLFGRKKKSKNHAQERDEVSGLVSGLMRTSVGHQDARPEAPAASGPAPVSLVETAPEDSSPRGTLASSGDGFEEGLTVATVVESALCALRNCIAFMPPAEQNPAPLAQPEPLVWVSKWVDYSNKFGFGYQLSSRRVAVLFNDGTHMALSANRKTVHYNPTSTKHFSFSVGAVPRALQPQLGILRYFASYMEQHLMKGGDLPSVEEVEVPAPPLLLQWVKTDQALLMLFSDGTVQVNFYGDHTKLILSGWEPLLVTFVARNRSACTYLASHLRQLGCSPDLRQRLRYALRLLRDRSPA
Procedure: as §6

PBD1 F559D mutant = biological target: T6, PBD1 F559D mutant (Homo sapiens, UniProt P53350, F559D); experiment: FP-based binding/inhibition assay, PBD1 F559D; conditions: FP binding, PBD1 F559D vs WT
T6 construct: constructs expressing PBD1 (residues 345–603) WT (pKM7650), F559D (pKM7878); His; TEV site (N); made in house; host or cells: bacteria (E. coli)
T6 sequence (P53350 345-603 F559D): as the sequence (P53350 345-603) above, with F215D counted along it
Procedure: as §2
(§7) Fig. S4. Generation of F559 mutants for in vitro and cell-based assays in Fig. 4. (A) SDS-PAGE showing the proteins used for the FP assays in Fig. 4 A and B. CBB, a Coomassie Brilliant Blue– stained gel. (B) Summary of Kd and EC85 values for PBD1 WT and mutants. The Kd values for PBD1 WT and mutants were determined after extrapolating them from the binding curves as the concentration at which 50% of the FITC-Ahx-DPPLHSpTAI-NH2 are PBD1-bound. The EC85 values indicate the effective concentration of 85% of the maximal concentration calculated for each protein. The FP values were obtained 30 minutes after incubation. For the F559K and F559R mutants, we were not able to determine the EC85 values and therefore used 2 µM of these proteins for the assays in Fig. 4B. N.D., not determined. […]

PBD1 F559E mutant = biological target: T7, PBD1 F559E mutant (Homo sapiens, UniProt P53350, F559E); experiment: FP-based binding/inhibition assay, PBD1 F559E; conditions: FP binding, PBD1 F559E vs WT
T7 construct: constructs expressing PBD1 (residues 345–603) WT (pKM7650), F559D (pKM7878), F559E (pKM7879); His; TEV site (N); made in house; host or cells: bacteria (E. coli)
T7 sequence (P53350 345-603 F559E): as the sequence (P53350 345-603) above, with F215E counted along it
Procedure: as §2, §7

PBD1 F559K mutant = biological target: T8, PBD1 F559K mutant (Homo sapiens, UniProt P53350, F559K); experiment: FP-based binding/inhibition assay, PBD1 F559K; conditions: FP binding, PBD1 F559K vs WT
T8 construct: constructs expressing PBD1 (residues 345–603) WT (pKM7650); His; TEV site (N); made in house; host or cells: bacteria (E. coli)
T8 sequence (P53350 345-603 F559K): as the sequence (P53350 345-603) above, with F215K counted along it
Procedure: as §2, §7

PBD1 F559R mutant = biological target: T9, PBD1 F559R mutant (Homo sapiens, UniProt P53350, F559R); experiment: FP-based binding/inhibition assay, PBD1 F559R; conditions: FP binding, PBD1 F559R vs WT
T9 construct: constructs expressing PBD1 (residues 345–603) WT (pKM7650); His; TEV site (N); made in house; host or cells: bacteria (E. coli)
T9 sequence (P53350 345-603 F559R): as the sequence (P53350 345-603) above, with F215R counted along it
Procedure: as §2, §7

cultured cells = test system: cultured cells; set-up: method as in PMID 31685831; conditions: cited from earlier work

Cc1cc2c(s1)c(=O)n(CC1CC1)c1n[nH]c(=S)n21 [compound 5]
IC50 (full-length Plk1): 1.66 ± 0.04 µM
Cell efficacy (GI50) Mean ± SD (L363 cells): N. S.
IC50 (Plk1 PBD (PBD1)): 0.0128 ± 0.0026 µM
PBD2 IC50 ± SD (Plk2 PBD (PBD2)): N. S.
PBD3 IC50 ± SD (Plk3 PBD (PBD3)): N. S.
Ki (BZP Rat brain site): 0.41 µM

Cc1cc2c(s1)c(=O)n(CC1CC1)c1nnc(Sc3c([N+](=O)[O-])ncn3C)n21 [compound 6]
IC50 (full-length Plk1): > 50 µM
GI50 (L363 cells; read-out: Cell efficacy (GI50) Mean ± SD): 3.13 ± 0.15 µM
Conversion of prodrug to active species by GSH (in words) [1]: complete conversion
Solubility (in words) [2]: low solubility
Interactions (Ki, µM), summary of PDSP screen (in words) [3]: None observed

O=C(CCCCC1SCC2NC(=O)NC21)NCCOCCOCCOCCOCCC(=O)NCCCn1c(=O)c2cc(F)ccc2n2c(=S)[nH]nc12 (centres unmarked) [compound 22]
IC50 (full-length Plk1): 9.32 ± 0.17 µM
Pulldown of Plk1 from mixed total lysates (in words) (Flag-Plk1 K82M): precipitated the full-length Plk1; also recorded: specifically interacts with
Pulldown of Plk2 from mixed total lysates (in words) (Flag-Plk2 K108M): not Plk2 or Plk3
Pulldown of Plk3 from mixed total lysates (in words) (Flag-Plk3 K52R): not Plk2 or Plk3

FITC-Ahx-DPPLHSpTAI-NH2 ({FITC-Ahx}-DPPLHS[pT]AI-NH2; SMILES CC[C@H](C)[C@H](NC(=O)[C@H](C)NC(=O)[C@@H](NC(=O)[C@H](CO)NC(=O)[C@H](Cc1c[nH]cn1)NC(=O)[C@H](CC(C)C)NC(=O)[C@@H]1CCCN1C(=O)[C@@H]1CCCN1C(=O)[C@H](CC(=O)O)NC(=O)CCCCCNC(=S)Nc1ccc2c(c1)C(=O)OC21c2ccc(O)cc2Oc2cc(O)ccc21)[C@@H](C)OP(=O)(O)O)C(N)=O) [FITC-conjugated phosphopeptide, FP probe, reference compound]
Decrease in affinity of the FITC-phosphopeptide compared to WT (PBD1 F559D mutant): 1.7 fold
Decrease in affinity of the FITC-phosphopeptide compared to WT (PBD1 F559E mutant): approximately sevenfold decreased affinity
Decrease in affinity of the FITC-phosphopeptide compared to WT (PBD1 F559K mutant): more than 27 fold
Decrease in affinity of the FITC-phosphopeptide compared to WT (PBD1 F559R mutant): > 42 fold

Polotyrin
GI50 (cultured cells): a few hundred
